Data taken from US10246453B2, “Benzenesulfonamide compounds and their use as therapeutic agents” (Xenon Pharmaceuticals Inc., priority 2016, dated 2019).
Counter-ions that a name gives are not always drawn.

Tests used:
NaV1.1 [1] = target: T1, NaV1.1 (Homo sapiens (Human), UniProt P35498); experiment: Sodium Influx Assay (Flux), NaV1.1; assay type: cell-based; settings: Trex HEK293 cells, ANG2 dye; arithmetic mean
NaV1.5 [2] = target: T2, NaV1.5 (Homo sapiens (Human), UniProt Q14524); experiment: cell-based
T2 sequence (Q14524 other isoform, or with tags, fused parts or gaps): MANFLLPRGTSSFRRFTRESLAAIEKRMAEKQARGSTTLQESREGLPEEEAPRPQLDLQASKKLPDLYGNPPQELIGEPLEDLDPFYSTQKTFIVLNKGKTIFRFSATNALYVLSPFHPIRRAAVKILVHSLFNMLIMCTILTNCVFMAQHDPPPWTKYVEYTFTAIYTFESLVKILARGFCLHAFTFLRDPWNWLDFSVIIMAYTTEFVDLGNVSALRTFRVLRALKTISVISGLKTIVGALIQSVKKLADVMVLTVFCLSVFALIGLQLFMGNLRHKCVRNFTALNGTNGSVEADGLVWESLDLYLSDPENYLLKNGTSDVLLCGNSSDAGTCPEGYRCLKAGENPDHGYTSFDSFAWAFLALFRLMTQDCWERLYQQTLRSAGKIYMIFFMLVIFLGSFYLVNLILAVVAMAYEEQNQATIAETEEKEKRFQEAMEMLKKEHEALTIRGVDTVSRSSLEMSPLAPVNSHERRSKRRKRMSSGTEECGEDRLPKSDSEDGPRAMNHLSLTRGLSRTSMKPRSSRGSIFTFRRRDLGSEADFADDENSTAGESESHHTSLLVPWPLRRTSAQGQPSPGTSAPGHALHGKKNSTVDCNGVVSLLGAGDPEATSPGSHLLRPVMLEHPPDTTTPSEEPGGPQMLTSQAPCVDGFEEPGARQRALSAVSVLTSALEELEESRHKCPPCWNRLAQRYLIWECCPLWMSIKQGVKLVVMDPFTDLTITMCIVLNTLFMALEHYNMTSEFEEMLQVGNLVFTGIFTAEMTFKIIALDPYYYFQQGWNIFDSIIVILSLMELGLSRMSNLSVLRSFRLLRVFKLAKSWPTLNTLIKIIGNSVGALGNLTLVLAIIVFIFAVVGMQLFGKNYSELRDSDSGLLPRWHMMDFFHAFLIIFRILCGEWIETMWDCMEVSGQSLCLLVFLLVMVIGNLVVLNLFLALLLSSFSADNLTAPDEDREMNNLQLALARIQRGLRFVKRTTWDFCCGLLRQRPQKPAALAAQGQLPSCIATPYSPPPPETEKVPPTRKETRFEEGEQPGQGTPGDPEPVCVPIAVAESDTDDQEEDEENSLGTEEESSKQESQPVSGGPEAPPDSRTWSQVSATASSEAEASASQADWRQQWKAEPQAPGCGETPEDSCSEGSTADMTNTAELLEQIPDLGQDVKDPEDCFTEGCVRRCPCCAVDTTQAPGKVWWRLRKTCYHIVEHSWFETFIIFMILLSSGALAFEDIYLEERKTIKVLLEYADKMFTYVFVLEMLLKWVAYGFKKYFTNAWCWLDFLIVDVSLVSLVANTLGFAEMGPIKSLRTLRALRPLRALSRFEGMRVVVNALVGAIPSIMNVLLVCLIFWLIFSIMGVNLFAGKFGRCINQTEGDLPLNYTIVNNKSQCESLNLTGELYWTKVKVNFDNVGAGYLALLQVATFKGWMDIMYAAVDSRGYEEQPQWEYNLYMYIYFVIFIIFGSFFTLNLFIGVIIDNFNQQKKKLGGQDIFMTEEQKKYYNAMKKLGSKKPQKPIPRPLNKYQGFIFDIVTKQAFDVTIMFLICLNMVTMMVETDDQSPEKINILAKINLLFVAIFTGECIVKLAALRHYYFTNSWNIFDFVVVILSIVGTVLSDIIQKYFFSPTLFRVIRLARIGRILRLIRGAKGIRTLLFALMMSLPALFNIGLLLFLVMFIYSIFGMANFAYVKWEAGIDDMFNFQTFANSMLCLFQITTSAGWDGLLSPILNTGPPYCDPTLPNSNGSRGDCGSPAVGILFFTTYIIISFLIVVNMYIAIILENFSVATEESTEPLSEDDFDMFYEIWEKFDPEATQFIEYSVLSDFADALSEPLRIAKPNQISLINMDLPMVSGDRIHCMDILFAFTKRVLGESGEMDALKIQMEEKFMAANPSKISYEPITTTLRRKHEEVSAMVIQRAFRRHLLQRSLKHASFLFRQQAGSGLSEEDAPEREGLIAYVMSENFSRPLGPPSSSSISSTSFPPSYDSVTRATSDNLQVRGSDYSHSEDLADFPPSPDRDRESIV

NaV1.6 [3] = target: T3, NaV1.6 (Homo sapiens (Human), UniProt Q9UQD0); experiment: Sodium Influx Assay (Flux), NaV1.6
T3 sequence (Q9UQD0 whole entry): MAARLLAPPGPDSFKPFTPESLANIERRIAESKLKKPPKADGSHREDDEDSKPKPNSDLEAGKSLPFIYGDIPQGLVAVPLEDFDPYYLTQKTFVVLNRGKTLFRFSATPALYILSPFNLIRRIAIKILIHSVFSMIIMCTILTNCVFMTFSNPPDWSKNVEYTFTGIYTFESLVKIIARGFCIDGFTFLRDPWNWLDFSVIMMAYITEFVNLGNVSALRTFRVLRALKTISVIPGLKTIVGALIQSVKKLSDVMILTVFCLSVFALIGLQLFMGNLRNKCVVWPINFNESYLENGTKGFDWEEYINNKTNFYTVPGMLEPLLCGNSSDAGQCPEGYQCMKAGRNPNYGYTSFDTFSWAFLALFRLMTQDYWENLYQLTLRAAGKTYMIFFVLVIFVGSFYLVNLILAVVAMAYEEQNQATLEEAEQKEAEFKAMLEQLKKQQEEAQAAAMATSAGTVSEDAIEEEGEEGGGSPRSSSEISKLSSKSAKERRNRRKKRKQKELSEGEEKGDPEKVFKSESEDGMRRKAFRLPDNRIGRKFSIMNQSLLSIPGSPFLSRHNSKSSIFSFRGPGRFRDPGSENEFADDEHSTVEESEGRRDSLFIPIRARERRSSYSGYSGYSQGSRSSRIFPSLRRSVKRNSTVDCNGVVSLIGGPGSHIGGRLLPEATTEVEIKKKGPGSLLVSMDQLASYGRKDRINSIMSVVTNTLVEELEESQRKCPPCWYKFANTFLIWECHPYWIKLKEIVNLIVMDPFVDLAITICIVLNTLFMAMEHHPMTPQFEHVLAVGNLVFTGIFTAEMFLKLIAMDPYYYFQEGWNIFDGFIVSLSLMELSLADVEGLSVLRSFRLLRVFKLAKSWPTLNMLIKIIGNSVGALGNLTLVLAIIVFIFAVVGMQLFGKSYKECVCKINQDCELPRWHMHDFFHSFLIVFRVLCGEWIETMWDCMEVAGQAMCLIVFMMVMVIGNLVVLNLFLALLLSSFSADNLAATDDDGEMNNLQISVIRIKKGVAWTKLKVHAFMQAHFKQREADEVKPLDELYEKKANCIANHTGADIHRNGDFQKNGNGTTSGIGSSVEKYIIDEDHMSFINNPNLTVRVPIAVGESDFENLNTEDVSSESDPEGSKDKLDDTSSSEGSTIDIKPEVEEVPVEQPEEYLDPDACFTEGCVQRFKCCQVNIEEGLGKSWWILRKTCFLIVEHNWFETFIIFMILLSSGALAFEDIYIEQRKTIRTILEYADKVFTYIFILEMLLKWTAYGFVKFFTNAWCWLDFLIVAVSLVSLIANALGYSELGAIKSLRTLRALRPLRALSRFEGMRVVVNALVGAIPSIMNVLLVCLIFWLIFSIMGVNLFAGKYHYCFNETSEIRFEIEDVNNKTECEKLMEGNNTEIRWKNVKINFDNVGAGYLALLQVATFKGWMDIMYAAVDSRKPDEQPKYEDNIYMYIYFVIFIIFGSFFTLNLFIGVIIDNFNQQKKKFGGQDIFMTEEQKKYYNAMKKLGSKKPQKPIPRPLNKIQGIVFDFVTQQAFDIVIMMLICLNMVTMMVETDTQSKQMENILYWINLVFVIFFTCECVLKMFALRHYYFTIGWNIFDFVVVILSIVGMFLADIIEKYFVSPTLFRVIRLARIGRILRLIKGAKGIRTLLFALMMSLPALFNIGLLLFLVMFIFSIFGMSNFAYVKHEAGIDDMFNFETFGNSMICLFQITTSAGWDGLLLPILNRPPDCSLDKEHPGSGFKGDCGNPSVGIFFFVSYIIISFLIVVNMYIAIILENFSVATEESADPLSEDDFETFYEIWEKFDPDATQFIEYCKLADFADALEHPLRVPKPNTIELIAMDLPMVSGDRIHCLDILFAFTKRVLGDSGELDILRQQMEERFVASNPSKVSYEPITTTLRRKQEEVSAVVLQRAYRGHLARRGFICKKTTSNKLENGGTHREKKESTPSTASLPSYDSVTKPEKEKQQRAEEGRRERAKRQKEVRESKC

NaV1.6 [4] = target: T3, NaV1.6; experiment: Electrophysiological Assay (EP), patch voltage clamp, NaV1.6; assay type: cell-based; settings: HEK-293 cells, whole-cell patch clamp, inactivated state; arithmetic mean
NaV1.1 [5] = target: T1, NaV1.1; experiment: Electrophysiological Assay (EP), patch voltage clamp, NaV1.1; assay type: cell-based; settings: HEK-293 cells, whole-cell patch clamp, inactivated state; arithmetic mean
Method: Sodium currents were measured using the patch clamp technique in the whole-cell configuration using either a PatchXpress automated voltage clamp or manually using an Axopatch 200B (Axon Instruments) or Model 2400 (A-M systems) amplifier.
In some studies, the external sodium was reduced by equimolar replacement with choline. […] All recordings were performed at ambient temperature in a bath chamber with a volume of 150 μL. Control sodium currents were measured in 0.5% DMSO. Controls and representative compounds of the invention were applied to the recording chamber through a 4-pinch or 8-pinch valve bath perfusion system manufactured by ALA Scientific Instruments.
Series resistance compensation was applied (60-80%). […] All statistics in this study are given as mean±SD.
The membrane potential was maintained at a voltage where inactivation of the channel is complete. The voltage is then stepped back to a very negative (Vhold=−150 mV) voltage for 20 ms and then a test pulse is applied to quantify the compound block. […] The percent decrease in sodium current following wash-on of compound was taken as the percent block of sodium channels.

NaV1.5 [6] = target: T2, NaV1.5; experiment: Sodium Influx Assay (Flux), NaV1.5; settings: read-out: Flux NaV1.5 IC50; Trex HEK293 cells, ANG2 dye; arithmetic mean
[7] = read-out: Flux NaV1.6 IC50, Trex HEK293 cells, ANG2 dye, arithmetic mean

Row | IC50 (NaV1.1 [1]) [µM] | IC50 (NaV1.6 [3]) [µM] | IC50 (NaV1.6 [4]) [µM] | IC50 (NaV1.1 [5]) [µM] | IC50 (NaV1.6 [3]; [7]) [µM] | SMILES | IC50 (NaV1.5 [2]) [µM] | IC50 (NaV1.5 [6]) [µM]
1 | 4.25 | 3.24 |  |  |  | C[C@H](c1cc(C2CC2)ccc1F)N1CCC(Oc2ccc(S(=O)(=O)Nc3cscn3)cc2Cl)CC1 (stereo in doubt) [Example 320] | 4.74 | 
2 | 5.17 | 2.33 |  |  |  | CN(c1cc(F)c(S(=O)(=O)Nc2cscn2)cc1Cl)[C@H]1CCN(Cc2ccc3[nH]ccc3c2)C1 [Example 190, (S)-4-((1-((1H-indol-5-yl)methyl)pyrrolidin-3-yl)(methyl)amino)-5-chloro-2-fluoro-N-(thiazol-4-yl)benzene-sulfonamide formate] | 8.25 | 
3 | 3.57 |  | 0.33 | > 10 | 0.774 | CN(c1cc(F)c(S(=O)(=O)Nc2cscn2)cc1Cl)[C@H]1CCN(Cc2cccc(C(F)F)c2)C1 [Example 193, (S)-5-chloro-4-((1-(3-(difluoromethyl)benzyl)-pyrrolidin-3-yl)(methyl)amino)-2-fluoro-N-(thiazol-4-yl)benzene-sulfonamide] |  | 9.02
4 | 4.44 |  | 3.81 | > 10 | 3.1 | CCN(c1cc(F)c(S(=O)(=O)Nc2cscn2)cc1Cl)[C@H]1CCN(Cc2ccccc2)C1 [Example 263, (S)-4-((1-benzylpyrrolidin-3-yl)(ethyl)amino)-5-chloro-2-fluoro-N-(thiazol-4-yl)benzenesulfonamide] |  | 19.1
5 | > 30 |  | 0.329 | > 10 | 0.647 | Cc1c(O[C@H]2CCN(Cc3ccccc3)C2)cc(F)c(S(=O)(=O)Nc2cscn2)c1F [Example 269, (S)-4-((1-benzylpyrrolidin-3-yl)oxy)-2,6-difluoro-3-methyl-N-(thiazol-4-yl)benzenesulfonamide hydrochloride] |  | > 30
6 | 27.9 |  | 0.278 | > 10 | 0.959 | C[C@H](c1ccccc1)N1CCC(Oc2cc(F)c(S(=O)(=O)Nc3cscn3)cc2Cl)CC1 [Example 222, (R)-5-chloro-2-fluoro-4-((1-(1-phenylethyl)piperidin-4-yl)oxy)-N-(thiazol-4-yl)benzenesulfonamide 2,2,2-trifluoroacetate] |  | 19.4
7 | 22.5 |  | 0.462 | > 10 | 0.532 | COc1ccccc1CN1CC[C@H](N(C)c2cc(F)c(S(=O)(=O)Nc3cscn3)cc2Cl)C1 [Example 206, (S)-5-chloro-2-fluoro-4-((1-(2-methoxybenzyl)pyrrolidin-3-yl)(methyl)amino)-N-(thiazol-4-yl)benzenesulfonamide] |  | > 30

Second part, the molecule before the results:

Row | SMILES | IC50 (NaV1.1 [1]) [µM] | IC50 (NaV1.6 [3]) [µM] | IC50 (NaV1.6 [4]) [µM] | IC50 (NaV1.1 [5]) [µM] | IC50 (NaV1.6 [3]; [7]) [µM] | IC50 (NaV1.5 [2]) [µM] | IC50 (NaV1.5 [6]) [µM]
8 | CN(c1cc(F)c(S(=O)(=O)Nc2cscn2)cc1Cl)[C@H]1CCN(Cc2cnn(Cc3ccccc3)c2)C1 [Example 165, (S)-4-((1-((1-benzyl-1H-pyrazol-4-yl)methyl)pyrrolidin-3-yl)(methyl)amino)-5-chloro-2-fluoro-N-(thiazol-4-yl)benzene-sulfonamide formate] | 4.61 | 3.34 |  |  |  | 6.97 | 
9 | Cc1c(OC2(C)CCN(Cc3ccccc3)C2)cc(F)c(S(=O)(=O)Nc2nccs2)c1F (racemic) [Example 228, rac-4-((1-benzyl-3-methylpyrrolidin-3-yl)oxy)-2,6-difluoro-3-methyl-N-(thiazol-2-yl)benzenesulfonamide 2,2,2-trifluoroacetate] | 5.27 | 0.031 |  |  |  | 23.1 | 
10 | CN(c1cc(F)c(S(=O)(=O)Nc2cscn2)cc1Cl)[C@H]1CCN(C(C)(C)c2ccccc2)C1 [Example 257, (S)-5-chloro-2-fluoro-4-(methyl(1-(2-phenylpropan-2-yl)pyrrolidin-3-yl)amino)-N-(thiazol-4-yl)benzenesulfonamide formate] | 10.3 |  | 0.17 | > 10 | 0.701 |  | 10.6
11 | CN(c1cc(F)c(S(=O)(=O)Nc2cccc(F)n2)cc1Cl)[C@H]1CCN(C(C)(C)c2ccccc2)C1 [Example 260, (S)-5-chloro-2-fluoro-N-(6-fluoropyridin-2-yl)-4-(methyl(1-(2-phenylpropan-2-yl)pyrrolidin-3-yl)amino)benzenesulfonamide 2,2,2-trifluoroacetate] | 7.35 |  | 0.842 | 9.64 | 1.68 |  | 10.1
12 | O=S(=O)(Nc1ncns1)c1ccc(OC2CCN(Cc3ccccc3)CC2)c(Cl)c1 [Example 100, 4-(1-benzylpiperidin-4-yloxy)-3-chloro-N-(1,2,4-thiadiazol-5-yl)benzenesulfonamide 2,2,2-trifluoroacetate] | 30 |  | 0.164 | > 10 | 0.19 |  | > 30
13 | CC1(Nc2ccc(S(=O)(=O)Nc3nccs3)cc2Cl)CN(Cc2ccccc2)C1 [Example 25, 4-((1-benzyl-3-methylazetidin-3-yl)amino)-3-chloro-N-(thiazol-2-yl)benzenesulfonamide 2,2,2-trifluoroacetate] | 5.76 |  | 0.138 | > 10 | 0.569 |  | 24.7
14 | Cc1cccc(CN2CC[C@H](N(C)c3cc(F)c(S(=O)(=O)Nc4cscn4)c(F)c3C)C2)n1 [Example 104, (S)-2,6-difluoro-3-methyl-4-(methyl(1-((6-methylpyridin-2-yl)methyl)pyrrolidin-3-yl)amino)-N-(thiazol-4-yl)benzenesulfonamide formate] | > 30 |  | 0.011 | > 10 | 0.026 |  | > 30
15 | CN(c1cc(F)c(S(=O)(=O)Nc2cscn2)cc1Cl)[C@H]1CCN([C@H]2CCc3ccccc32)C1 [Example 249, 5-chloro-4-(((S)-1-((S)-2,3-dihydro-1H-inden-1-yl)pyrrolidin-3-yl)(methyl)amino)-2-fluoro-N-(thiazol-4-yl)benzenesulfonamide 2,2,2-trifluoroacetate] | 11.2 |  | 0.11 | > 10 | 0.285 |  | 17.4
16 | CN(c1cc(F)c(S(=O)(=O)Nc2cscn2)c(F)c1Cl)[C@H]1CCN(Cc2ccccc2)C1 [Example 102, (S)-4-((1-benzylpyrrolidin-3-yl)(methyl)amino)-3-chloro-2,6-difluoro-N-(thiazol-4-yl)benzenesulfonamide formate] | > 30 |  | 0.152 | > 10 | 0.703 |  | > 30
17 | O=S(=O)(Nc1cscn1)c1c(F)cc(OC2CCN(Cc3ccccc3)CC2)c(Cl)c1F [Example 105, 4-((1-benzylpiperidin-4-yl)oxy)-3-chloro-2,6-difluoro-N-(thiazol-4-yl)benzenesulfonamide formate] | 27.6 |  | 0.151 | > 10 | 0.268 |  | 17.6
18 | Cc1cccc(CN2CC[C@H](N(C)c3ccc(S(=O)(=O)Nc4ncns4)cc3Cl)C2)c1 [Example 83, (S)-3-chloro-4-(methyl(1-(3-methylbenzyl)pyrrolidin-3-yl)amino)-N-(1,2,4-thiadiazol-5-yl)benzenesulfonamide] | > 30 |  | 0.036 | > 10 | 0.029 |  | > 30
19 | O=S(=O)(Nc1nccs1)c1ccc(N[C@@H]2CCN(Cc3ccccc3)C2)c(Cl)c1 [Example 79, (R)-4-(1-benzylpyrrolidin-3-ylamino)-3-chloro-N-(thiazol-2-yl)benzenesulfonamide] | 6.34 |  | 0.138 | > 10 | 0.57 |  | > 30
20 | Cc1cccc(CN2CCC(Oc3ccc(S(=O)(=O)Nc4nccs4)cc3Cl)CC2)n1 [Example 82, 3-chloro-4-(1-((6-methylpyridin-2-yl)methyl)piperidin-4-yloxy)-N-(thiazol-2-yl)benzenesulfonamide] | > 30 |  | 0.056 | > 10 | 0.423 |  | > 30
21 | CN(c1ccc(S(=O)(=O)Nc2nccs2)cc1Cl)[C@H]1CCN(Cc2cccc(C(F)F)c2)C1 [Example 28, (S)-3-chloro-4-((1-(3-(difluoromethyl)benzyl)pyrrolidin-3-yl)(methyl)amino)-N-(thiazol-2-yl)benzenesulfonamide] | 3.23 |  | 0.036 | 4.21 | 0.221 |  | 5.73
22 | Cc1cccc(CN2CCC(Oc3ccc(S(=O)(=O)Nc4nccs4)cc3Cl)CC2)c1 [Example 92, 3-chloro-4-(1-(3-methylbenzyl)piperidin-4-yloxy)-N-(thiazol-2-yl)benzenesulfonamide] | 6.4 |  | 0.081 | 7.53 | 0.203 |  | 3.64
